Laboratory results from article PMC6225345, “Structural Characterization of the Lactobacillus Plantarum FlmC Protein Involved in Biofilm Formation” (Molecules : A Journal of Synthetic Chemistry and Natural …, 2018).

Molecular target: T1, ΔTM-FlmC (FlmC81-335) (Lactiplantibacillus plantarum, UniProt F9UMI5)
T1 construct: gene lp_1000
Test: co-purification from E. coli; organic extraction of unfolded protein, TLC and UHPLC-HRMS
Assay type: binding
Conditions: lipid acquired from expression host; identity inferred from m/z 775.5789 (+, in-source dehydro form) and 387.2863 (2-), tentative

T1 sequence (F9UMI5 entry or part of it, stated change not applied): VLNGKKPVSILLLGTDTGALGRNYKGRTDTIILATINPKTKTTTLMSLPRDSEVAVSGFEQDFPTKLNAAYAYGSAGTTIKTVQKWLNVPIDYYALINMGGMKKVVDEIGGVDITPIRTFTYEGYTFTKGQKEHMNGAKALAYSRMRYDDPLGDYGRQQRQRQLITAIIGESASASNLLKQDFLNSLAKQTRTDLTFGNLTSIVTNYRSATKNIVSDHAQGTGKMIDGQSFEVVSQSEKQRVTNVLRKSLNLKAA

CC(C)=CCCC(C)=CCCC(C)=CCCC(C)=CCCC(C)=CCCC(C)=CCCC(C)=CCCC(C)=CCCC(C)=CCCC(C)=CCOP(=O)(O)O [decaprenyl phosphate]
co-purification from E. coli; organic extraction of unfolded protein, TLC and UH: occurrence of a decaprenyl phosphate (dpr-P) ligand tightly bound to the protein was hypothesized
